Assay results: patent US20130143795A1, “METHOD OF TREATMENT OF HIV OR AIDS” (Adistem Ltd., priority 2010, published 2013)
Where “and” joins values, the source holds several entries; their conditions need not be identical. Identical values can stand only once.

Tests used:
Pilot trial: body weight = type: in vivo, human; details: HIV positive patients, 10 mg s.c. once a week, one value per patient (A-T)
Experimental: (§1) The peptide Ac-LKKTETQ-OH was the active therapeutic agent investigated in a pilot trial on twenty similar HIV positive men and women, some who had progressed to severe AIDS.
(§2) Each man or women was injected subcutaneously with a composition comprising the peptide Ac-LKKTETQ-OH (10 mg), once a week for 12 weeks. Blood tests for CD4 and CD8-positive cells and HIV viral load (by PCR) and routine pathology were conducted at baseline, 8 weeks and 12 weeks. […] A small drop in blood glucose was seen but this was not determined to be significant.

[1] = test system: CD4-positive white blood cell; assay: Pilot trial: CD4-positive white blood cell counts; type: in vivo, human
Experimental: as §1, §2

[2] = test system: CD8-positive white blood cell; assay: Pilot trial: CD8-positive white blood cell counts; type: in vivo, human
Experimental: as §1, §2

HIV = assay: Pilot trial: HIV viral load (by PCR); type: in vivo
Experimental: as §1, §2

[3] = Pilot trial: routine pathology and adverse effects; type: in vivo, human; details: 10 mg s.c. once a week for 12 weeks
Experimental: as §1, §2

[4] = test system: CXCR4 coreceptor-trophic HT/92/599 strain of HIV-1; assay: Antiviral assay in fresh human PBMCs, HIV-1 HT/92/599; type: cell-based; details: for antiviral activity against HIV-1 HT/92/599 (T-cell tropic): concentrations up to a high test concentration of 500 μM
Experimental: (§3) The peptide Ac-LKKTETQ-OH was evaluated in fresh human peripheral blood mononuclear cells (PBMCs) against CXCR4 coreceptor-trophic HT/92/599 and the CCR5 coreceptor-trophic BaL subtype B strains of HIV-1. The peptide was added to the cells at 8 hours prior to infection and immediately prior to infection. The AZT control compound was evaluated in parallel with the peptide and yielded EC50 values of 8 and 6 nM against HIV-1HT/92/599 and values of 6 and 10 nM against HIV-1PaL.

[5] = test system: CCR5 coreceptor-trophic BaL subtype B strain of HIV-1; assay: Antiviral assay in fresh human PBMCs, HIV-1 BaL; type: cell-based; details: for antiviral activity against HIV-1 BaL (macrophage tropic): concentrations up to a high test concentration of 500 μM
Experimental: as §3

[6] = HIV positive patients and those showing symptoms of AIDS
[7] = HIV positive patients, 10 mg s.c. once a week, 8 weeks, one value per patient (A-T)
[8] = HIV positive patients, 10 mg s.c. once a week, 12 weeks, one value per patient (A-T)

Row | Compound | Weight, 8 weeks (Pilot trial: body weight; 8 weeks) | Weight, 12 weeks (Pilot trial: body weight; 12 weeks) | CD4 positive white blood cell counts (summary) [1, 6] | CD4-positive white blood cell count, 8 weeks [1, 7] | CD4-positive white blood cell count, 12 weeks [1, 8] | CD8 positive white blood cell counts (summary) [2, 6] | CD8-positive white blood cell count, 8 weeks [2, 7] | CD8-positive white blood cell count, 12 weeks [2, 8] | viral load (summary) (HIV; [6]) | HIV Viral Load, 8 weeks (HIV; HIV positive patients, 10 mg s.c. once a week, 8 weeks, by PCR, one value per patient (A-T)) | HIV Viral Load, 12 weeks (HIV; HIV positive patients, 10 mg s.c. once a week, 12 weeks, by PCR, one value per patient (A-T)) | adverse effect [3] | Hemoglobin levels, Creatinine, ALT, AST, Alkaline Phos, Bilirubin, GGT, Albumin, Total Protein and globulin tests ([3]; baseline, 8 and 12 weeks) | blood glucose ([3]; not determined to be significant) | antiviral activity against HIV-1 HT/92/599 (T-cell tropic) ([4]; listed as SEQ ID NO: 1) | antiviral activity against HIV-1 HT/92/599 (T-cell tropic) ([4]; listed as SEQ ID NO:1) | antiviral activity against HIV-1 BaL (macrophage tropic) ([5]; listed as SEQ ID NO: 1) | antiviral activity against HIV-1 BaL (macrophage tropic) ([5]; listed as SEQ ID NO:1) | EC50 ([4]; two values, evaluated in parallel with peptide added 8 hours prior to and immediately prior to infection, read-out: EC50 against HIV-1HT/92/599) | EC50 ([5]; two values, evaluated in parallel with peptide added 8 hours prior to and immediately prior to infection, read-out: EC50 against HIV-1PaL)
1 | Ac-LKKTETQ-OH [Ac-LKKTETQ-OH] | 92 and 52 and 59 and 71 and 82 and 79 (2×) and 72 (2×) and 60.5 and 50.5 and 58 and 71.5 and 68.5 and 61 and 56 and 55 and 70 and 78 (2×) | 92 and 52 and 72 (4×) and 82 and 79 and 71 (2×) and 51 and 65 and 80 and 69 and 60 and 55 and 58 and 70.5 and 78.5 (2×) | increased | 816 and 415 and 158 and 407 and 456 and 477 and 348 and 381 and 439 and 301 and 335 and 543 and 428 and 466 (2×) and 259 and 471 and 300 and 316 and 602 | 879 and 604 and 175 and 425 and 625 and 662 and 404 and 498 and 510 and 424 and 452 and 749 and 616 and 602 and 368 and 469 and 571 and 430 and 416 and 675 | increased | 980 and 360 and 1310 and 1379 and 1044 and 1296 and 959 and 2120 and 866 and 773 and 594 (2×) and 606 and 939 and 617 and 648 and 456 and 1108 and 1125 | 1330 and 459 and 1718 and 1394 and 1339 and 1226 and 1190 and 2647 and 958 and 800 and 712 and 893 and 983 and 1034 and 880 and 890 and 521 and 1384 and 1201 and 660 | decreased viral load significantly | undetectable (9×) and 28410 copies/ml and 450 copies/ml and 8214 copies/ml and 17616 copies/ml and 15201 copies/ml and 145 copies/ml and 12004 copies/ml and 8781 copies/ml and 200 copies/ml and 98687 copies/ml and 24 copies/ml | undetectable (19×) and 5151 copies/ml | No adverse effect | did not show anything remarkable | small drop | no effect | did not demonstrate antiviral activity | no effect | did not demonstrate antiviral activity |  | 
2 | Cc1cn([C@H]2C[C@H](N=[N+]=[N-])[C@@H](CO)O2)c(=O)[nH]c1=O [AZT, reference compound] |  |  |  |  |  |  |  |  |  |  |  |  |  |  |  |  |  |  | 8 nM and 6 nM | 6 nM and 10 nM
